Experimental data taken from publication PMC12567082, “Silver(I) Complexes Bearing S-Alkyl Thiosalicylic Acid Derivatives: DNA/BSA Binding and Antitumor Activity In Vitro and In Vivo” (Pharmaceutics, 2025).

Legend:
human lung cancer (A549) = test: MTT assay A549; assay type: cell-based
Description: (§1) Mouse breast cancer (4T1), human breast cancer (MDA-MB-468), mouse colon cancer (CT26), human colon cancer (HCT-116), mouse lung cancer (LLC1), human lung cancer (A549), mouse mesenchymal stem cells (mMSC), and human fibroblast cell lines (MRC-5) were used in this study and were consistently cultured in complete Dulbecco’s Modified Eagle Medium (DMEM) (Sigma-Aldrich, St. Louis, MO, USA) in incubator (5% CO2) under standard conditions. Complete DMEM was Dulbecco’s Modified Eagle Medium supplemented with 10% fetal bovine serum (FBS), 1 mmol/L penicillin–streptomycin, 1 mmol/L mixed nonessential amino acids, and 2 mmol/L L-glutamine (Sigma-Aldrich, St. Louis, MO, USA). All cancer cell lines and MRC-5 cell line were obtained from American Type Culture Collection (ATCC, Manassas, VA, USA), but mMSC was manufactured by Gibco (Middlesex County, MA, USA).
(§2) In 96-well microplates, we seeded cancer and non-cancer cells, more exactly 5 × 10^3 cells per well in 100 μL of complete DMEM (Sigma-Aldrich, St. Louis, MO, USA). […] Tested concentration range for all metal-based substances was 3.9–500 μM. After incubation with MTT solution (5 mg/mL; pH 7.2) for 4 h, optical density was determined using Zenyth 3100 microplate multimode detector (Salzburg, Austria). All experiments were performed three times, each in triplicate, and the IC50 values as well as selectivity indexes (IC50 for mMSC or MRC-5/IC50 for mouse or human cancer cells) were calculated.

BSA = target: T1, BSA (Bos taurus, UniProt P02769); test: BSA tryptophan fluorescence quenching; assay type: binding, bovine
T1 construct: purchased Sigma-Aldrich
T1 sequence (P02769 25-607): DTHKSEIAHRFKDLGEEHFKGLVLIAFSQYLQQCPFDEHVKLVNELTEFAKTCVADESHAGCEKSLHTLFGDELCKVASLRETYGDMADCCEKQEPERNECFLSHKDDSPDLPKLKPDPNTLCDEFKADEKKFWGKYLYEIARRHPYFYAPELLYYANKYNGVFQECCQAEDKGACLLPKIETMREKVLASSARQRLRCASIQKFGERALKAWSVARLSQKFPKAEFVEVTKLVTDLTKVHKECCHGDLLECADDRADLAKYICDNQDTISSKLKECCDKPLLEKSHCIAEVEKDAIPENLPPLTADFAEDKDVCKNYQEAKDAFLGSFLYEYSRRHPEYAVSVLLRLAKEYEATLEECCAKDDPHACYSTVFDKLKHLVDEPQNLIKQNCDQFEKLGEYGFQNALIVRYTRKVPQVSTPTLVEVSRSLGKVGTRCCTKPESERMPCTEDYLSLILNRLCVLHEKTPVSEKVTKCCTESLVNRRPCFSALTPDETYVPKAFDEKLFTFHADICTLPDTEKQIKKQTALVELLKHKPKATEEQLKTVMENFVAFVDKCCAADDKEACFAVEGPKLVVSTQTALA
Description: The protein binding study was carried out using tryptophan fluorescence quenching experiments with BSA. […] Fluorescence emission spectra were recorded between 300 and 500 nm, with excitation at 295 nm.
The quenching constant Ksv was determined based on the Stern–Volmer relationship, as described by Equation (3):I0/I = 1 + kqτ0[Q] = 1 + Ksv[Q](3)
In this equation, I0 and I refer to the fluorescence intensities of BSA measured without and with the quencher (complex), τ0 represents the average fluorescence lifetime of free BSA (∼10^−8 s), and [Q] indicates the quencher concentration.
Parameters such as association binding constant (K) and the number of binding sites per albumin (n) were obtained from Scatchard Equation (4):(ΔI/I0)/[Q] = nK − KΔI/I0(4)
To minimize inner filter, both intensities of fluorescence originating from excitation and emission light absorption and re-absorption were corrected by employing Equation (5); Icor and Iobs are the corrected and observed fluorescence intensities, respectively, and Aex and Aem represent the absorbance of the metal complex at the excitation and emission wavelengths, respectively.Icor = Iobs · […]^(Aex + Aem)/2(5)

CT-DNA [1] = test: EB–CT-DNA fluorescence quenching; assay type: binding, calf; details: EB–CT-DNA 8.52 × 10^−5 M, PBS pH 7.4
Description: All samples were prepared in phosphate-buffered saline (PBS, pH 7.4). Stern–Volmer Equation (2) was used to interpret the fluorescence quenching data.

HCT116 cells = test: Annexin V/PI apoptosis in HCT116; assay type: cell-based, human; details: 0.5 μM for 24 h
Description: (§3) The following supporting information can be downloaded at https://www.mdpi.com/article/10.3390/pharmaceutics17101340/s1. NMR and FTIR spectra of free ligands and complexes. Figure S1. […] Inset: Plot of [DNA]/(εA − εf) vs. [DNA]. Figure S2. Relative viscosity (η/η0) ^1/3 of CT-DNA (8 µM) in PBS buffer solution with the addition of increasing amounts (r) of C2 and C4 complexes. Figure S3. […] [EB] = 8.52 × 10^−5 M; [DNA] = 8.52 × 10^−5 M; [complex] = (0–6.82) × 10^−5; λex = 527 nm. Arrows show the intensity changes upon increasing the concentration of the complex. Inset graph: Plot of I0/I vs. [Q]. Figure S4. […] [BSA] = 2 μM; [complex] = 0–8 μM; λex = 295 nm. Arrows show the intensity changes upon increasing the concentration of the complex. Inset graph: Plot of I0/I vs. [Q]. Figure S5. […] Figure S6. Dose-dependent cytotoxicity of silver(I) complexes with S-alkyl derivatives of thiosalicylic acid. […] All data are presented as mean values ± SD from three independent experiments performed in triplicate. Figure S7. Dose-dependent cytotoxicity of S-alkyl derivatives of thiosalicylic acid. […] All data are presented as mean values ± SD from three independent experiments performed in triplicate. Figure S8. […] Apoptotic rates of C2-treated (0.5 μM for 24 h) as well as untreated CT26 and HCT116 cells were determined by flow cytometry using Annexin V (FITC) and PI double staining. […]

CT-DNA [2] = test: Viscosity measurements of DNA solution; set-up: species or system calf; details: up to r = 1.0, 8 µM DNA
Description: Viscosity measurements were performed to evaluate the interaction of C2 and C4 with DNA. The flow time was measured with a digital stopwatch. For each concentration, six replicate measurements were taken, and the average flow time was used for analysis. The data were presented as (η/η0)^1/3 against r, where η is the viscosity of DNA in the presence of complex, and η0 is the viscosity of DNA alone in the buffered solution. The viscosity value was calculated from the observed flow time of DNA-containing solution (t) corrected for the flow time of buffer alone (t0), η = (t − t0)/t0.

[3] = test system: Mouse breast cancer (4T1); test: MTT assay 4T1; assay type: cell-based; details: 4T1, 48 h
Description: as §1, §2

CT26 cells = test: Annexin V/PI apoptosis in CT26; assay type: cell-based, mouse; details: 0.5 μM for 24 h
Description: as §3

CT-DNA [4] = test: UV-Vis absorption titration with CT-DNA; assay type: binding, calf; details: ΔG = −RT lnKb
Description: All DNA-binding studies were conducted in 0.01 M phosphate-buffered saline (PBS, pH 7.40) at 25 °C. […] To eliminate absorbance from CT-DNA, identical amounts of DNA were added to both the test and reference solutions prior to spectral recording.
Intrinsic binding constants (Kb) were calculated using the equation to determine the DNA-binding affinities of the complexes (1):[DNA]/(εa − εf) = [DNA]/(εb − εf) + 1 [Kb(εb − εf)](1)
[DNA] represents the concentration of DNA; apparent extinction coefficient, εa, was calculated as the ratio of the observed absorbance to the concentration of the complex (Aobs/[complex]); and εb and εf correspond to the extinction coefficients of the complex in the fully bound and free forms, respectively. Kb was determined from the ratio of the slope to the intercept obtained from the corresponding linear plots.

[5] = test system: human fibroblast cell lines (MRC-5); test: MTT assay MRC-5; assay type: cell-based
Description: as §1, §2

[6] = test system: mouse mesenchymal stem cells (mMSC); test: MTT assay mMSC; assay type: cell-based
Description: as §1, §2

mouse lung cancer (LLC1) = test: MTT assay LLC1; assay type: cell-based
Description: as §1, §2

[7] = test system: human breast cancer (MDA-MB-468); test: MTT assay MDA-MB-468; assay type: cell-based
Description: as §1, §2

Q: Which IC50 (human lung cancer (A549); A549, 24 h) does the source give for `CCSc1ccccc1C(=O)[O][Ag].CCSc1ccccc1C(=O)[O][Ag]` [C2, [Ag2(S-ethyl-thiosal)2]] here?
A: Its IC50 is 37.8 ± 1.01 µM.

Q: And the “Selectivity Index (IC50 mMSC or MRC-5/ IC50 Cancer Cell)” value (shortened to “Selectivity Index”) (human lung cancer (A549); A549, 24 h)?
A: Its value is 1.01.

Q: And the IC50 (human lung cancer (A549); A549, 48 h)?
A: Its IC50 is 50.2 ± 1.07 µM.

Q: And the “Selectivity Index” value (human lung cancer (A549); A549, 48 h)?
A: The value was 0.86.

Q: What about the “kq (quenching rate constant)” value (BSA; BSA 2 µM) of the same molecule?
A: The value was “(1.4 ± 0.1) × 10^13 M^−1 s^−1”.

Q: What about the “Ksv (Stern–Volmer constant)” value (BSA; BSA 2 µM, λex 295 nm) of the same molecule?
A: The value was “(1.4 ± 0.1) × 10^5 M^−1”.

Q: What about the “K (binding constant)” value (BSA; Scatchard equation) of the same molecule?
A: The value was “(1.3 ± 0.1) × 10^5 M^−1”.

Q: And the “n (number of binding sites)” value (BSA; Scatchard equation)?
A: Its value is 1.1.

Q: And the “Ksv EB (Stern–Volmer constant)” value (CT-DNA [1])?
A: The value was “(1.1 ± 0.1) × 10^4 M^−1”.

Q: And the “apoptosis of HCT116 cells” value (HCT116 cells)?
A: Its value is “underwent apoptosis”.

Q: What about the “viscosity of CT-DNA” value (CT-DNA [2]) of the same molecule?
A: Its value is “modest rise in the viscosity”.

Q: And the IC50 [3]?
A: Its IC50 is 4.84 ± 0.92 µM.

Q: And the “Selectivity Index” value [3]?
A: The value was 0.93.

Q: And the “apoptosis of CT26 cells” value (CT26 cells)?
A: The value was “underwent apoptosis”.

Q: What about the “ΔG (Gibbs free energy)” value (CT-DNA [4]) of the same molecule?
A: The value was -6.76 kcal/mol.

Q: What about the IC50 ([5]; MRC-5, 24 h) of the same molecule?
A: The IC50 was 38 ± 1.91 µM.

Q: What about the IC50 ([5]; MRC-5, 48 h) of the same molecule?
A: Its IC50 is 43.2 ± 1.23 µM.

Q: What about the IC50 ([6]; 24 h) of the same molecule?
A: The IC50 was 4.29 ± 0.92 µM.

Q: And the IC50 ([6]; 48 h)?
A: Its IC50 is 4.52 ± 0.48 µM.

Q: What about the IC50 (mouse lung cancer (LLC1); LLC1, 24 h) of the same molecule?
A: Its IC50 is 18.2 ± 0.93 µM.

Q: What about the “Selectivity Index” value (mouse lung cancer (LLC1); LLC1, 24 h) of the same molecule?
A: Its value is 0.24.

Q: What about the IC50 (mouse lung cancer (LLC1); LLC1, 48 h) of the same molecule?
A: The IC50 was 20.2 ± 0.79 µM.

Q: What about the “Selectivity Index” value (mouse lung cancer (LLC1); LLC1, 48 h) of the same molecule?
A: Its value is 0.22.

Q: And the IC50 ([7]; MDA-MB-468, 24 h)?
A: Its IC50 is 8.67 ± 1.13 µM.

Q: And the “Selectivity Index” value ([7]; MDA-MB-468, 24 h)?
A: Its value is 4.39.

Q: What about the IC50 ([7]; MDA-MB-468, 48 h) of the same molecule?
A: Its IC50 is 5.43 ± 0.34 µM.

Q: What about the “Selectivity Index” value ([7]; MDA-MB-468, 48 h) of the same molecule?
A: Its value is 7.95.
